Measured values taken from the supplement of paper PMC12592484.

Experiments:
Assay in all cases: drug sensitivity score (DSS2, normalised partial AUC of dose-response, 72 h CellTiter-Glo viability) (DSS (dimensionless)); higher = more sensitive (stronger growth inhibition / cytotoxicity); extreme values may be limits of the assay
CAF#2 = system: CAF#2 (primary prostate cancer-associated fibroblasts of iCAF-like type)
Procedure, shortened: (§1)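 The drug sensitivity score reported here is a partial area under the fitted logistic dose–response curve, divided by the log of the curve's upper asymptote and computed in BREEZE; higher values denote greater sensitivity. Low-passage primary prostate cancer-associated fibroblasts, PF179T, WPMY-1, LNCaP and 22Rv1 cells were seeded into 384-well plates preloaded with compounds at five doses across a 10,000-fold range. CellTiter-Glo 2.0 luminescence gave viability at 72 h, scaled to vehicle and positive-control wells.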

CAF#6 = system: CAF#6 (primary prostate cancer-associated fibroblasts of iCAF-like type)
Procedure, shortened: as §1

LNCAP = system: LNCAP
Procedure, shortened: as §1

WPMY-1 = system: WPMY-1
Procedure, shortened: as §1

22Rv1 = system: 22Rv1
Procedure, shortened: as §1

PF179T = system: PF179T
Procedure, shortened: as §1

CAF#5 = system: CAF#5 (primary prostate cancer-associated fibroblasts of myCAF-like type)
Procedure, shortened: as §1

CAF#3 = system: CAF#3 (primary prostate cancer-associated fibroblasts of myCAF-like type)
Procedure, shortened: as §1

CAF#7 = system: CAF#7 (primary prostate cancer-associated fibroblasts of myCAF-like type)
Procedure, shortened: as §1

CAF#4 = system: CAF#4 (primary prostate cancer-associated fibroblasts of iCAF-like type)
Procedure, shortened: as §1

CAF#1 = system: CAF#1 (primary prostate cancer-associated fibroblasts of myCAF-like type)
Procedure, shortened: as §1

Structure (SMILES)	drug sensitivity score (CAF#2)	drug sensitivity score (CAF#6)	drug sensitivity score (LNCAP)	drug sensitivity score (WPMY-1)	drug sensitivity score (22Rv1)	drug sensitivity score (PF179T)	drug sensitivity score (CAF#5)	drug sensitivity score (CAF#3)	drug sensitivity score (CAF#7)	drug sensitivity score (CAF#4)	drug sensitivity score (CAF#1)
NC(=O)c1cccc2cn(-c3ccc([C@@H]4CCCNC4)cc3)nc12 [Niraparib] (tested concentration range 1-10000 nM)	3.9	1.1	5.5	4.4	7.5	5.8	1.7	3.2	3.7	2.5	1.5
Cc1ccccc1CN1C(=O)C2=C(CCN(Cc3ccccc3)C2)N2CCN=C12 [ONC201] (tested concentration range 2.5-25000 nM)	6.2	4.1	9.3	6.9	13.9	3.1	3.1	2.3	3.8	3.4	3.6
O=C(c1cc(Cc2n[nH]c(=O)c3ccccc23)ccc1F)N1CCN(C(=O)C2CC2)CC1 [Olaparib] (tested concentration range 1-10000 nM)	4.7	3.5	4.4	4.5	5.8	6.4	4.5	3	4.1	6.8	3.8
COC(=O)C[C@](O)(CCCC(C)(C)O)C(=O)O[C@@H]1C(OC)=C[C@]23CCCN2CCc2cc4c(cc2[C@H]13)OCO4 [Omacetaxine] (tested concentration range 1-10000 nM)	21.9	20	29.2	25.2	35	22	18.7	20.6	21.4	15.3	19.1
CC1(C)CC[C@]2(NC(=O)C(C)(F)F)CC[C@]3(C)[C@H](C(=O)C=C4[C@@]5(C)C=C(C#N)C(=O)C(C)(C)[C@@H]5CC[C@]43C)[C@@H]2C1 [Omaveloxolone] (tested concentration range 1-10000 nM)	23.2	5.3	23.9	18.4	14.4	14.8	18.5	4.6	4.8	17	19.8
CC(C)c1cc(C(=O)N2Cc3ccc(CN4CCN(C)CC4)cc3C2)c(O)cc1O [Onalespib] (tested concentration range 0.2-2500 nM)	12.1	10.5	18.2	21.1	18	11.6	8.6	11.8	11.2	7.8	10
O=C(NCc1ccncc1)C12CC3CC(C1)CC(c1ccc(Cl)cc1)(C3)C2 [Opaganib] (tested concentration range 5-50000 nM)	4.4	0.7	8.6	6.8	5.9	3.8	0.7	1.2	0.4	4.1	2.7
COC[C@H](NC(=O)c1cnc(C)s1)C(=O)N[C@@H](COC)C(=O)N[C@@H](Cc1ccccc1)C(=O)[C@@]1(C)CO1 [Oprozomib] (tested concentration range 0.2-2500 nM)	16	10.5	20.8	25.7	20.7	14.6	13.1	10.3	9.7	11.4	14
C=CC(=O)Nc1cc(Nc2nccc(-c3cn(C)c4ccccc34)n2)c(OC)cc1N(C)CCN(C)C [Osimertinib] (tested concentration range 0.2-2500 nM)	5	3	6.4	4.6	5.9	1.9	4.8	5.4	4.2	3.7	3.4
O=C(O)C(=O)O.[NH-][C@@H]1CCCC[C@H]1[NH-].[Pt+2] [Oxaliplatin] (tested concentration range 10-100000 nM)	10.6	7.3	26.1	9	13.8	8.8	9.4	8.3	7.4	9.1	9.7
C=CCc1cccc(/C=N/NC(=O)CN2CCN(Cc3ccccc3)CC2)c1O [PAC-1] (tested concentration range 1-10000 nM)	3.6	1.9	3.9	6.9	4.4	3.9	1.5	1.9	2	0.2	0.3
O=C(Nc1cccnc1)N1CCC(Cc2cccc(Oc3ccc(C(F)(F)F)cn3)c2)CC1 [PF-3845] (tested concentration range 1-10000 nM)	0	0	3.3	4.6	2.3	3	0	0.2	0	0	0
COc1ccccc1S(=O)(=O)Nc1ccc2c(c1)CN(C)C(=O)N2 [PFI-1] (tested concentration range 3-30000 nM)	2.1	1.8	6.4	4.2	6.6	2.6	1	4.3	3.4	1.3	3.1
CN1CCN(c2cc(C(=O)Nc3ccc4c(c3)-c3c(c(C(N)=O)nn3-c3ccc(F)cc3)CC4)c(Cl)cn2)CC1 [PHA 408] (tested concentration range 1-10000 nM)	7	1.2	7.4	4.6	6.1	1.4	5.9	2.9	3.7	4.2	7.2
O=C(Nc1cc(Cl)cc2c1[nH]c1cnccc12)c1cccnc1 [PS-1145] (tested concentration range 2.5-25000 nM)	4.1	0.1	0	0.1	0	3.5	2.5	1.3	0	0	3.1
CC(=O)O[C@H]1C(=O)[C@@]2(C)[C@H]([C@H](OC(=O)c3ccccc3)[C@]3(O)C[C@H](OC(=O)[C@H](O)[C@@H](NC(=O)c4ccccc4)c4ccccc4)C(C)=C1C3(C)C)[C@]1(OC(C)=O)CO[C@@H]1C[C@@H]2O [Paclitaxel] (tested concentration range 0.1-1000 nM)	16.8	15.3	31.3	26.4	22.4	18.2	15.4	10.8	24.2	8.8	14.8
C1=N/C2=N/c3ccc(OCCN4CCCC4)c(c3)COC/C=C/COCc3cccc(c3)C(=C1)N2 [Pacritinib] (tested concentration range 1-10000 nM)	7.8	8.2	8.4	10.5	8.6	4.5	7.3	9.4	8.1	6.1	6.7
CC(=O)c1c(C)c2cnc(Nc3ccc(N4CCNCC4)cn3)nc2n(C2CCCC2)c1=O [Palbociclib] (tested concentration range 1-10000 nM)	7.4	1.4	7.7	2.1	7.9	5.1	4.9	0	2	3.3	2.5
Cc1[nH]c2ccccc2c1CCNCc1ccc(/C=C/C(=O)NO)cc1 [Panobinostat] (tested concentration range 0.1-1000 nM)	11.4	9.3	23.1	22.9	23.2	10.9	10.4	7.7	7.9	8	11.3
Cc1ccc(Nc2nccc(N(C)c3ccc4c(C)n(C)nc4c3)n2)cc1S(N)(=O)=O [Pazopanib] (tested concentration range 1-10000 nM)	6.7	1.1	4.1	0.2	0	5	3.7	4	5.1	5.4	3.6
Nc1nc2[nH]cc(CCc3ccc(C(=O)N[C@@H](CCC(=O)O)C(=O)O)cc3)c2c(=O)[nH]1 [Pemetrexed] (tested concentration range 1-10000 nM)	0	0	9.4	13.5	0	0.1	0	0.5	0	0	1.2
OC[C@H]1O[C@@H](n2cnc3c2N=CNC[C@H]3O)C[C@@H]1O [Pentostatin] (tested concentration range 1-10000 nM)	0	0	0	0	0	0	0	0	0	0	0
NS(=O)(=O)OC[C@@H]1C[C@@H](n2ccc3c(N[C@H]4CCc5ccccc54)ncnc32)C[C@@H]1O [Pevonedistat] (tested concentration range 1-10000 nM)	13	5.7	29.6	12.6	18.9	6.4	9	0	5	7	4.4
FC(F)(F)c1ccc(CNc2ccc(Cc3c[nH]c4ncc(Cl)cc34)cn2)cn1 [Pexidartinib] (tested concentration range 1-10000 nM)	5.9	0	1.4	0.6	0	1.7	5.1	1.2	2.7	3	4.8
CS(=O)(=O)N1CCN(Cc2cc3nc(-c4cccc5[nH]ncc45)nc(N4CCOCC4)c3s2)CC1 [Pictilisib] (tested concentration range 1-10000 nM)	11.5	7.7	13.7	12	16.1	11.2	12	10.9	9.3	10.9	11.7
